Some test systems named below: NCI-H23; MOLT-4; HOP-62; CAKI-1; MCF7; SF-295; SR; SK-MEL-2; Malme-3M; SF-539; TK-10; UACC-62; SK-MEL-5; SK-OV-3; HCC 2998; LOX IMVI; K562; CCRF-CEM; Hs-578T; SNB-75.
Common to all, as to assay: DTP human tumour cell line panel, 48 h

The results in this text go back to ChEMBL document CHEMBL1201862, “PubChem BioAssay data set” (2004).

SMILES strings stand for the structures.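 Briefly, cells in 96-well plates were exposed to five compound concentrations for 48 h, and endpoints were estimated by linear interpolation. Abbreviation: GI50, concentration required for 50% inhibition of growth.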 Calls of active or inactive are those of the source. Cut-off read from the data, not from the text of the source: active = GI50 up to about 1.1 µM and inactive = higher.

What is called GI50 is the concentration at which growth is held to half of that of the control. On to `C=CCC1(C)CCCN(Cc2ccccc2)C1=O` (stereo not given), for which the GI50 in the experiment on NCI-H23, in the experiment with MOLT-4, in the experiment on HOP-62, in the experiment on CAKI-1, in the experiment with MCF7 and in the experiment with SF-295 was > 10 µM (inactive) each time. Besides, the GI50 in the experiment with SR is > 10 µM (inactive); with SK-MEL-2, > 10 µM (inactive); in the experiment with Malme-3M it was 0.0161 µM (active); with SF-539, > 10 µM (inactive); in the experiment on TK-10, > 10 µM (inactive); in the experiment with UACC-62, > 10 µM (inactive). Moreover, the GI50 with SK-MEL-5 is 0.41 µM (active); in the experiment on SK-OV-3 it was > 10 µM (inactive); in the experiment with HCC 2998 it was > 10 µM (inactive); in the experiment with LOX IMVI it was > 10 µM (inactive); with K562, > 10 µM (inactive); in the experiment on CCRF-CEM, > 10 µM (inactive). The GI50 in the experiment on Hs-578T was > 10 µM (inactive).
On to `C=C1C(=O)O[C@@H]2/C=C(C)/C=C\[C@@H]3O[C@@]3(C)C[C@@H](O)C12` (stereo not given in full), for which the GI50 in the experiment with NCI-H23 is 13.2 µM (inactive); in the experiment with MOLT-4, 5.14 µM (inactive); with HOP-62, 36.1 µM (inactive); in the experiment on CAKI-1, 8.91 µM (inactive); in the experiment with MCF7, 4.4 µM (inactive); in the experiment with SF-295, 49.7 µM (inactive). The GI50 is 30.8 µM (inactive) with SK-MEL-2; 12.7 µM (inactive) in the experiment with Malme-3M; 7.73 µM (inactive) with SF-539; 3.81 µM (inactive) in the experiment on TK-10; 12.9 µM (inactive) with UACC-62; 14.6 µM (inactive) in the experiment with SK-MEL-5. Moreover, the GI50 is 54 µM (inactive) with SK-OV-3; 44.3 µM (inactive) in the experiment with SNB-75; 18.9 µM (inactive) in the experiment with HCC 2998; 7.1 µM (inactive) with LOX IMVI; 3.5 µM (inactive) in the experiment on K562; 1.66 µM (inactive) with CCRF-CEM. In the experiment on Hs-578T, the GI50 is 39.2 µM (inactive).
Take `O=C1N2CCc3c([nH]c4ccccc34)C23CC2CCCCC12S3` (stereo not given): the GI50 was > 100 µM (inactive) in the experiment on NCI-H23; 24.7 µM (inactive) in the experiment with MOLT-4; > 100 µM (inactive) with HOP-62; > 100 µM (inactive) in the experiment with CAKI-1; 39.4 µM (inactive) in the experiment with MCF7; > 100 µM (inactive) with SF-295. The GI50 was 34.5 µM (inactive) with SR; < 0.01 µM (active) in the experiment on SK-MEL-2; > 100 µM (inactive) in the experiment with Malme-3M; > 100 µM (inactive) with SF-539; 28.3 µM (inactive) with TK-10; > 100 µM (inactive) in the experiment on UACC-62. The GI50 is 63.5 µM (inactive) with SK-MEL-5; > 100 µM (inactive) in the experiment on SK-OV-3; > 100 µM (inactive) with LOX IMVI; 34.6 µM (inactive) in the experiment with K562; > 100 µM (inactive) with Hs-578T.
With `NCCc1nc(-c2nc(C(=O)O)cs2)cs1`, the GI50 with NCI-H23, in the experiment on MOLT-4, with HOP-62, with CAKI-1, in the experiment with MCF7 and with SF-295 was > 100 µM (inactive) in each case. In addition, the GI50 with SR, in the experiment on SK-MEL-2, with Malme-3M, with SF-539, in the experiment with TK-10 and in the experiment with UACC-62 was > 100 µM (inactive) in each case. Besides, the GI50 with SK-MEL-5, with SK-OV-3, in the experiment on SNB-75, in the experiment with LOX IMVI, in the experiment on K562 and with CCRF-CEM was > 100 µM (inactive) throughout. Besides, the GI50 in the experiment on Hs-578T is > 100 µM (inactive).
Turning to `COc1nc2ncc([C@@H](O)[C@H](O)CO)nc2c(=O)[nH]1`, the GI50 in the experiment on MOLT-4, with HOP-62, with CAKI-1, in the experiment with MCF7, in the experiment with SF-295 and in the experiment on SR was > 100 µM (inactive) throughout. Further, the GI50 with SK-MEL-2, in the experiment on Malme-3M, with SF-539, in the experiment with TK-10, in the experiment with UACC-62 and in the experiment with SK-MEL-5 was > 100 µM (inactive) each time. The GI50 with SK-OV-3, in the experiment with SNB-75, in the experiment on LOX IMVI, in the experiment on K562, with CCRF-CEM and with Hs-578T was > 100 µM (inactive) in each case.
As for `O=C(CSCC(=O)N/N=C/c1cccs1)N/N=C/c1cccs1`, the GI50 in the experiment with NCI-H23 is 38.8 µM (inactive); with MOLT-4, 64.7 µM (inactive); in the experiment on HOP-62 it was 46.3 µM (inactive); in the experiment on CAKI-1 it was 46.6 µM (inactive); with MCF7, > 100 µM (inactive); in the experiment on SF-295, 52.7 µM (inactive). In addition, the GI50 in the experiment with SK-MEL-2 was 93.1 µM (inactive); with Malme-3M it was 61 µM (inactive); in the experiment on SF-539, 52.8 µM (inactive); in the experiment on TK-10, > 100 µM (inactive); in the experiment with UACC-62, > 100 µM (inactive); in the experiment on SK-MEL-5, 76.4 µM (inactive). The GI50 is > 100 µM (inactive) in the experiment on SK-OV-3; > 100 µM (inactive) in the experiment on SNB-75; > 100 µM (inactive) in the experiment with HCC 2998; > 100 µM (inactive) with LOX IMVI; > 100 µM (inactive) with K562; 51.6 µM (inactive) with CCRF-CEM. Further, the GI50 in the experiment on Hs-578T was 61.1 µM (inactive).
Turning to `COc1cc(/C=N/n2c(-c3ccccc3)n[nH]c2=O)cc(OC)c1OC`, the GI50 is 4.41 µM (inactive) in the experiment on NCI-H23; 0.733 µM (active) in the experiment with MOLT-4; 4.93 µM (inactive) in the experiment on HOP-62; 1.1 µM (active) in the experiment on CAKI-1; 1.3 µM (inactive) in the experiment with MCF7; 0.745 µM (active) in the experiment with SF-295. Also, the GI50 with SK-MEL-2 is 3.87 µM (inactive); in the experiment on Malme-3M, 1.46 µM (inactive); with SF-539 it was 1.96 µM (inactive); in the experiment with TK-10, 4.17 µM (inactive); with UACC-62, 2.34 µM (inactive); with SK-MEL-5, 0.815 µM (active). Further, the GI50 in the experiment with SK-OV-3 was 2.56 µM (inactive); in the experiment on SNB-75, 2.48 µM (inactive); in the experiment on HCC 2998 it was > 100 µM (inactive); in the experiment with LOX IMVI it was 3.22 µM (inactive); in the experiment on K562, 0.598 µM (active); in the experiment with CCRF-CEM, 1.76 µM (inactive). The GI50 with Hs-578T was 3.56 µM (inactive).
Regarding `CCCCC1Cc2cc(O)ccc2-c2nc3cc(O)ccc3n21.CCCCC1Cc2cc(O)ccc2-c2nc3ccc(O)cc3n21` (stereo not given), the GI50 in the experiment on NCI-H23 was 21.9 µM (inactive); in the experiment with MOLT-4 it was 13.6 µM (inactive); in the experiment on HOP-62 it was 14.4 µM (inactive); with CAKI-1, 23.7 µM (inactive); with MCF7, 19.2 µM (inactive); in the experiment on SF-295, 15.2 µM (inactive). Also, the GI50 in the experiment with SR was 12.6 µM (inactive); in the experiment with Malme-3M, 21.8 µM (inactive); in the experiment with SF-539 it was 14.8 µM (inactive); with TK-10 it was 18.6 µM (inactive); in the experiment with UACC-62 it was 12.8 µM (inactive); in the experiment with SK-MEL-5, 13.5 µM (inactive). The GI50 in the experiment on SK-OV-3 was 18.5 µM (inactive); in the experiment on HCC 2998, 14.3 µM (inactive); in the experiment with LOX IMVI, 16.8 µM (inactive); with K562 it was 10.7 µM (inactive); in the experiment with CCRF-CEM it was 19.2 µM (inactive); in the experiment with Hs-578T, 16.3 µM (inactive).
Take `Cc1cccc(Nc2cn(COCc3ccccc3)c(=O)[nH]c2=O)c1`: the GI50 in the experiment on NCI-H23 is > 100 µM (inactive); in the experiment with MOLT-4, > 100 µM (inactive); in the experiment with HOP-62 it was 20.8 µM (inactive); with CAKI-1, > 100 µM (inactive); with MCF7 it was 72.6 µM (inactive); in the experiment with SF-295 it was 72.1 µM (inactive). Also, the GI50 in the experiment with SR was > 100 µM (inactive); with UACC-62, > 100 µM (inactive); in the experiment with SK-MEL-5 it was > 100 µM (inactive); in the experiment with HCC 2998 it was > 100 µM (inactive); with LOX IMVI, 56.2 µM (inactive); with K562, > 100 µM (inactive). For the same compound, the GI50 was > 100 µM (inactive) in the experiment on CCRF-CEM and 49.3 µM (inactive) in the experiment with Hs-578T.
On to `CC(=O)O[C@H]1C[C@H](O[C@H]2[C@@H](O)C[C@H](O[C@H]3[C@@H](O)C[C@H](O[C@H]4CC[C@@]5(C)[C@H](CC[C@@H]6[C@@H]5CC[C@]5(C)[C@@H](C7=CC(=O)OC7)CC[C@]65O)C4)O[C@@H]3C)O[C@@H]2C)O[C@H](C)[C@H]1O[C@@H]1O[C@H](CO)[C@@H](O)[C@H](O)[C@H]1O`, for which the GI50 with NCI-H23 is < 0.01 µM (active); with MOLT-4, > 100 µM (inactive); in the experiment with HOP-62 it was < 0.01 µM (active); with CAKI-1, < 0.01 µM (active); in the experiment on MCF7 it was 0.013 µM (active); in the experiment with SF-295, < 0.0161 µM (active). For the same compound, the GI50 in the experiment with SK-MEL-2 is 0.0452 µM (active); with Malme-3M, 0.0278 µM (active); in the experiment with SF-539, < 0.014 µM (active); in the experiment on TK-10, 0.0174 µM (active); with UACC-62, 0.132 µM (active); in the experiment on SK-MEL-5 it was 0.0237 µM (active). Also, the GI50 with SK-OV-3 is 0.0395 µM (active); in the experiment on SNB-75 it was 0.0687 µM (active); in the experiment with HCC 2998 it was 0.0615 µM (active); with LOX IMVI, < 0.0159 µM (active); with K562, 0.0815 µM (active); in the experiment on CCRF-CEM, 0.0269 µM (active). Also, the GI50 with Hs-578T was < 0.01 µM (active).
For the compound `CCCCC/C=C\C=C1\C(=O)C=C[C@@H]1C/C=C\CCCC(=O)O`, the GI50 in the experiment on NCI-H23 is 7.16 µM (inactive); in the experiment on MOLT-4, 2.25 µM (inactive); with HOP-62 it was 2.89 µM (inactive); in the experiment on CAKI-1 it was 3.37 µM (inactive); in the experiment with MCF7, 4.09 µM (inactive); with SF-295 it was 3.87 µM (inactive). The GI50 in the experiment with SR is 1.96 µM (inactive); with SK-MEL-2, 3.05 µM (inactive); with Malme-3M, 10.2 µM (inactive); in the experiment on SF-539 it was 5.82 µM (inactive); in the experiment with TK-10, 8.43 µM (inactive); with UACC-62, 3.94 µM (inactive). Besides, the GI50 in the experiment with SK-MEL-5 was 3.78 µM (inactive); in the experiment with SK-OV-3, 7.06 µM (inactive); with SNB-75, 9.66 µM (inactive); in the experiment on LOX IMVI, 2.27 µM (inactive); in the experiment with K562, 1.62 µM (inactive); with CCRF-CEM, 0.205 µM (active). Also, the GI50 in the experiment with Hs-578T is 2.47 µM (inactive).
